From patent US20110223221A1, “STABILIZATION PROCESSES OF CATION RADICALS OF PHENOTHIAZINIC COMPOUNDS, COSMECEUTICAL FORMULATIONS AND METHODS FOR SKIN DISEASES AND DISTURBANCES PREVENTION” (priority 2008, published 2011) come the findings set out here.

Each structure is given as a SMILES string.

Data set [1] is described as follows: UV light transmittance in a quartz plate (Australian Method). In kind it is physicochemical. Conditions: solution of 2.0 mg/cm^2 in a quartz plate, 320 to 360 nm. The method, then: In order to analyze the transmittance of UV light in the wavelength of 320 to 360 nm, solutions of 2.0 mg/cm^2 of the phenothiazines TR, TFP and FP were used in a quartz plate.
As it can be observed, in these conditions, TR, TFP and FP block the passage of almost 100% of UV light incidence (FIG. 1). This evaluation was obtained based on the Australian Method (Perassinoto, N. L., Journal In Comesto, VII Ed., 2006), which was elected the most adequate, because it considers the ε of UVA region of absorption. The other methods are based in the 320 and 360 nm absorption ratio and can generate false negative results. According to the Australian Method, it will be a good sunscreen the compound that blocks 90% of UVA light incidence. In the case of the said cation radicals of the phenothiazines of the present invention, the blockage was of 99.99%.
A solution of 2.0 mg of drug/cm^2 was submitted to an analytical assay in a quartz plate, in the wavelength range from 320 to 360 nm, in order to verify the area of UV light transmittance (FIG. 7).
This evaluation was performed based in the Australian Method (Perassinoto, N. L.; Journal In Comesto; VII edition; p. 06; 2006), which was elected the most adequate, because it considers the ε of UVA region of absorption. The other methods are based in the 360 and 320 nm absorption ratio and can generate false negative results. According to the Australian Method, it will be a good sunscreen the compound that blocks 90% of UVA light incidence.

Data set [2] addresses methionine 80 of cytochrome c (Homo sapiens, UniProt P99999). In words: Photooxidation of model protein cytochrome c under UV irradiation, measured by dislocation to the blue of the Soret band. In kind it is biochemical. Conditions: for initial rate of dislocation to the blue of the Soret band: pH=4.0, 120 min UV (without drug 0.42); for effect on damage to cytochrome c: stabilized cation radicals 25 μM. The method, then:
(§1) It was analyzed the effect of the concentration of the phenothiazine derived compounds of the present invention TR (graph A, FIG. 2) and TFP (graph B, FIG. 2), on the photooxidation of the model protein (methionine 80 of cytochrome c), measured by the degree of deviation to the blue of the Soret band.
(§2) The white circle, in A and B, represents the damage caused to the protein after two hours of irradiation under UV light at 254 nm, at temperature of 25° C., at pH 4.
(§3) The effect of the media pH on the initial velocity of oxidation of methionine 80 of cytochrome c was analyzed at an UV irradiation of 254 nm, during 120 min, in the absence and in the presence of the stabilized cation radicals of TR, TFP and FP (FIG. 3). In the presence of the stabilized cation radicals of TR, TFP and FP, de concentration range of 5 to 2500 μM for pH 4.0 and the concentration range of 25 to 2500 μM for the pH range of 3.0 to 7.0 were used.
(§4) Samples containing cytochrome c 3 μM and TR 25 μM were irradiated at 254 nm, in phosphate buffer 5 mM, pH=4.0, at […]., in a cuvette, at 4 cm from a UV lamp of 4 W. The spectrum of cytochrome c and of phenothiazine were obtained before the irradiation (fine solid line of FIG. 4) and after 60 and 120 min of irradiation (dotted line and thick solid line, respectively, of FIG. 4). The spectrum shown in the curves corresponds to the overlapping spectrum changes of the phenothiazines detected during the same indicated time points.
(§5) The experiment described in the Example 4 was repeated for different concentrations of phenothiazines. The initial rate of dislocation to the blue of the Soret band was defined regarding the concentration of phenothiazine.
(§6) The irradiation of the cytochrome c was performed during 120 min, pH=4.0 and under UV lamp of 4 W, which led to the dislocation to the blue of the Soret band from 409 to 406 nm, with initial rate of 0.42 ms^−1 (open circle, FIG. 5).
(§7) Irradiation of the cytochrome c 3 μM was performed, for a pH variation range from 3.0 to 7.0. In this pH range, the phenothiazine remained predominately protonated due to its pKa of 8.1. […] In the said pH range, the initial rate of dislocation to the blue of the Soret band was determined, after 120 min of UV irradiation, in the presence and in the absence of TR (FIG. 6).

For data set [3], the system named is methionine 80 of cytochrome c. Described as above. In kind it is biochemical. Conditions: pH=4.0, 120 min UV (without drug 406 nm). The method, then: as §1, §2, §3, §4, §5, §6, §7
Sequence of methionine 80 of cytochrome c (P99999 whole entry): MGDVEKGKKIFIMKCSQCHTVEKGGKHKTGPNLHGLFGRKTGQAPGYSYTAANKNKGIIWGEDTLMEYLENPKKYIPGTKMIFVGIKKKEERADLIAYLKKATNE
Data set [4] can be described thus: Absorption bands of the cationic radicals. In kind it is physicochemical. Conditions: pre-micellic aggregates and micelles.
The mark [5] stands for this setting: two hours UV 254 nm, 25° C., pH 4.

Sequence of methionine 80 of cytochrome c (Homo sapiens, UniProt P99999) (P99999 whole entry): as above

As to `CSc1ccc2c(c1)N(CCC1CCCCN1C)c1ccccc1S2` (stereo not drawn) [TR, 10-[2-(1-methyl-2-piperidyl)ethyl]-2-methylsulfanyl-phenothiazine], the “blockage of the passage of UV light incidence” value (“blockage” for short) in data set [1] is on record as approximately 100%. Also, the “effect on rate of dislocation to the blue of the Soret band” value in data set [2] (25 μM, pH range from 5.0 to 7.0, 120 min UV) is “slight reduction”. For the same molecule, the “increase of the initial rate of dislocation to the blue” value in data set [2] (25 μM, pH=3.0) was 250%; in data set [2] (25 μM, pH=4.0), approximately 50%. Besides, the “effect on dislocation rate to the blue” value in data set [2] (drug 5 μM, pH=4.0, 120 min UV) was “discrete reduction”. In addition, the “initial rate of dislocation to the blue of the Soret band” value came out at 0.6 ms^−1 in data set [2] (drug 25 μM) and 0.23 ms^−1 in data set [2] (drug 2500 μM). For the same molecule, the “reduction of the initial rate of dislocation to the blue of the Soret band” value in data set [2] (high concentrations, pH=4.0) is on record as “around 50%”. In addition, the “effect on damage to cytochrome c” value is “progressively increased the damage” in data set [2] (pH range from 5.0 to 3.0) and “slightly protected” in data set [2] (pH range from 5.0 to 7.0). In addition, the “concentration up to which increasing drug exacerbated the damage (maximum damage)” value in data set [2] (setting [5]) worked out at 25 µM. For the same molecule, in data set [2] (setting [5]), the “effect on photooxidation damage of cytochrome c at very low concentrations” value is reported as “slight protection”. Further, the “Soret band after irradiation” value in data set [3] (drug 25 μM) worked out at 405 nm; in data set [3] (drug 2500 μM), 407 nm. Further, in data set [4], the “absorption band of the cationic radical” value was 615 nm.
On to `CN1CCN(CCCN2c3ccccc3Sc3ccc(C(F)(F)F)cc32)CC1` [TFP, 10-[3-(4-methylpiperazin-1-yl)propyl]-2-(trifluoromethyl)-10H-phenothiazine], for which, in data set [1], the “blockage” value is listed as approximately 100%. Also, the “absorption band of the cationic radical” value in data set [4] amounted to 520 nm.
`c1ccc2c(c1)Nc1ccccc1S2` [PHT, 10H-phenothiazine]: the “blockage” value in data set [1] is on record as approximately 100%.
`OCCN1CCN(CCCN2c3ccccc3Sc3ccc(C(F)(F)F)cc32)CC1` [FP, 2-[4-[3-[2-(trifluoromethyl)-10H-phenothiazin-10-yl]propyl]piperazin-1-yl]ethanol]: the “blockage” value in data set [1] is listed as approximately 100%. For the same molecule, in data set [2] (setting [5]), the “concentration up to which increasing drug exacerbated the damage (maximum damage)” value came to 10 µM. For the same molecule, the “absorption band of the cationic radical” value in data set [4] stood at 520 nm.
